Patent US20190151294A1, “TREATMENT OF ALCOHOLISM AND DEPRESSION AND/OR DYSPHORIC MOOD USING IBUDILAST” (MEDICINOVA, INC., priority 2016, published 2019)

Key:
[1] = system: non-treatment-seeking individuals with AUD; experiment: Phase 1b study: safety and tolerability; format: in vivo, human
Description: A Phase 1b laboratory study was conducted to determine the safety, tolerability, and initial efficacy of ibudilast (50 mg BID) in humans as a potential AUD therapeutic agent.
To address each of the above mentioned specific aims, a randomized, crossover, double-blind, placebo-controlled study was conducted to determine the safety, tolerability, and efficacy of ibudilast in individuals with current AUD. Participants were between the ages of 21 and 65 years; met the DSM-5 diagnostic criteria for AUD; reported drinking at least 48 standard drinks in a 30-day period, during the 90 days before enrollment; and were non-treatment seeking alcohol dependent individuals who consented to an inpatient stay at a medical facility for part of the study.
(§1) Twenty four non-treatment-seeking individuals with AUD were treated with ibudilast (50 mg BID) and placebo (PBO). Participants completed two alcohol IV challenges, one after taking IBUD for 6 days and one after taking matched PBO for 6 days with a 5-10 day washout period between the study drug conditions. Ibudilast was obtained in the form of capsules containing a delayed-release 10 mg formulation. Matching capsules of the placebo also were obtained. Each participant visited the Clinical and Translational Research Center (CTRC) during on Days 1-5 of each medication condition during which they came in for daily morning visits with the study nurse to take the morning study medication under direct observation and took home the evening study medication. The participants stayed overnight on Day 6 and were discharged on Day 7. During the daily visits to the CTRC, the study nurse collected vital signs, asked about side effects in an open-ended fashion and used the Systematic Assessment for Treatment Emergent Events (SAFTEE).
(§2) The study comprised a treatment group and a placebo group and each participant completed a daily assessment questionnaire to address changes in mood, withdrawal effects, alcohol cravings, and address issues pertaining to other side effects. Thus, non-treatment seeking alcohol dependent individuals were treated with ibudilast 50 mg (5×10 mg capsules) twice daily (BID) or placebo (PBO). […] Following the intravenous alcohol challenge, participants were monitored for 24 hours and then discharged. Following a 5-10 day washout period study participants were readmitted to the CTRC where they received the opposite treatment (IBUD or PBO) for the second part of the study.
Breath alcohol content (BrAC) was monitored every 3 to 5 minutes during infusion until target BrAC's of 0.02 g·dl, 0.04 g·dl, 0.06 g·dl, and 0.08 g·dl were obtained, following which infusion rates were reduced to half the original rate to maintain stable BrAC levels during the testing phase. The following parameters were assessed prior to intravenous alcohol challenge and again at each target BrAC: (1) Biphasic Alcohol Effects Scale (BAES) to obtain a reliable and valid measure of alcohol's stimulant and sedative effects; (2) Alcohol Urge Questionnaire (AUQ)—an 8-item scale where subjects rate their craving for alcohol at the present moment, which is appropriate for examining the level of the urge to drink alcohol; (3) Alcohol Ratings Scale, which captures “liking” and “wanting” of alcohol”; (4) The Profile of Mood States (POMS; McNair 1971) which was used to record positive and negative mood states; and (5) Heart Rate and Blood Pressure levels measure at baseline and at each target level of BrAC.

[2] = system: high-alcohol-drinking (HAD1) rats; experiment: Voluntary ethanol consumption in high-alcohol-drinking (HAD1) rats; format: in vivo, rat; details: for dose dependence of effect on ethanol intake (2-way mixed ANOVA): p<0.001
Description: (§3) To perform the study, adult male P and HAD1 rats were randomly assigned to receive one of the following four doses of ibudilast—0 mg/Kg, 3 mg/Kg, 6 mg/Kg, or 9 mg/Kg with eight rats assigned to each dose. Each dosing group was balanced to average a 2 h/day ethanol (15% v/v) intake. Water was concurrently available to the rats and Mazola corn oil was used as the vehicle.
(§4) The study was divided into four test phases. In the maintenance test phase rats in the treatment group were injected ibudilast subcutaneously (2 mL/kg s.c.), using standard solutions that deliver 3 mg/Kg, 6 mg/Kg or 9 mg/Kg of ibudilast, 60 min before each ethanol test session and the same dose of ibudilast was administered subcutaneously to the rats 8 hours later. Rats in the control group, however, are administered 2 mL/Kg Mazola corn oil subcutaneously. This protocol was carried out for 4 consecutive days. Following the maintenance test phase, is a two week no drug recovery phase during which rats are permitted access to ethanol and the amount of ethanol consumed by the rats was measured.
(§5) The recovery phase is followed by a two week forced ethanol abstinence phase. Following forced abstinence, the effects of ibudilast on ethanol drinking were examined by re-introducing ethanol to rats for a period of 5 consecutive days (i.e., the Relapse Test phase). Each animal received the same dose of ibudilast during maintenance and relapse test phases.

[3] = system: non-treatment-seeking individuals with AUD; experiment: Phase 1b study: stress reactivity assessment (SR); format: in vivo, human; details: 50 mg BID
From the text: Personal information collected at the time of admission (day 1) to the CRTC was used to generate personalized scripts of neutral and stressful conditions. Participants were asked to identify a recent stressful experience and to rate them on a 0 to 10 Likert scale, where a rating of 10 is considered to be the most stressful experience. Only stressful events rated≥8 were used in script development. Data on physical symptoms associated with the stressful and neutral events were also collected for script development.
During the study, each exposure consisted of 5-minute tape-recorded scripts recounting the recent stressful (or neutral) events in the participants' lives, including cognitions and physical feelings. […]
The following measures of mood, urge to drink, and physiological reactivity were administered at baseline and post-imagery for both the stress and neutral conditions: (1) The Profile of Mood States, Short Version (POMS) collected data on (a) positive and negative mood; (2) The Alcohol Urge Questionnaire (AUQ) measured subjective levels of alcohol cravings at the present moment (i.e., following stress imagery); (3) Cortisol levels were assessed by collecting saliva samples and heart rate and blood pressure were measured using a Dynamap Adult Vital Signs Monitor. […]

[4] = system: alcohol-preferring (P) rats; experiment: Voluntary ethanol consumption in alcohol-preferring (P) rats; format: in vivo, rat; details: for dose dependence of effect on ethanol intake (2-way mixed ANOVA): p<0.001
Description: as §3, §4, §5

[5] = system: non-treatment-seeking individuals with AUD; experiment: Phase 1b study: daily alcohol craving (AUQ); format: in vivo, human; details: 50 mg BID; over the course of the study; p<0.05; FIG. 4
Description: as §1, with “During the daily visits to the CTRC, the study nurse collected vital signs, asked about side effects in an open-ended fashion and used the Systematic Assessment for Treatment Emergent Events (SAFTEE).” left out
as §2, with “effects.” for “effects. Thus, non-treatment seeking alcohol dependent individuals were treated with ibudilast 50 mg (5×10 mg capsules) twice daily (BID) or placebo (PBO).”

For `CC(C)C(=O)c1c(C(C)C)nn2ccccc12` [ibudilast, Ibudilast], the “dose reductions during the course of the study” value ([1]; 50 mg BID) was “no dose reductions”, the “drop-outs for adverse event-related reasons” value ([1]; 50 mg BID) was “No subjects dropped out” and the tolerability and safety ([1]; 50 mg BID oral (20 mg BID days 1-2), 6 days, humans with AUD) was “well tolerated and safe”. The “heart rate or blood pressure in the context of alcohol consumption” value ([1]; 50 mg BID, IV alcohol, across the BrACs, p's>=0.35) was “did not affect”, the “headache, reported adverse drug effect” value ([1]; 50 mg BID, vs 0 during placebo, p<0.05) was 4 instances and the “reduction of ethanol intake” value ([2]; HAD1 rats, 5-day Relapse Test phase) was “about 50%”. For the same compound, the “dose dependence of effect on ethanol intake (2-way mixed ANOVA)” value (shortened to “dose dependence of effect”) ([2]; HAD1 rats, Relapse Test phase) was “dose dependent reduction in ethanol intake”, the “reduction of ethanol intake” value ([2]; HAD1 rats, maintenance test phase, 4 days, s.c. twice daily, vs vehicle) was “approximately 50%” and the “dose dependence of effect” value ([2]; HAD1 rats, maintenance test phase, 0, 3, 6, 9 mg/Kg) was “dose dependent reduction of ethanol intake”. For the same compound, the “time course of reduced ethanol intake (Dose x Day interaction)” value ([2]; HAD1 rats, p=0.023, data not shown) was “most robust on the first day”, the 24-hour food intake ([2]; HAD rats, especially at the 9 mg/Kg dose, effect diminished over the 5-day test phase) was “transitory reductions” and the “stress-induced AUQ craving” value ([3]; day 5 stress-exposure) was “did not affect”. The “positive mood during stress procedures” value ([3]; p<0.05, FIG. 6) was “increased positive mood”, the “reduction of ethanol intake” value ([4]; 5-day Relapse Test phase) was “about 50%” and the “ethanol drinking relative to controls” value ([4]; Relapse Test phase, 6 mg/Kg and 9 mg/Kg doses, p<0.05) was “significantly reducing ethanol drinking relative to controls”. The “dose dependence of effect” value ([4]; Relapse Test phase) was “dose dependent reduction in ethanol intake”, the 24-hour food intake ([4]; especially at the 9 mg/Kg dose, effect diminished over the 5-day test phase) was “transitory reductions” and the “dose dependence of effect” value ([4]; maintenance test phase, 0, 3, 6, 9 mg/Kg) was “dose dependent reduction of ethanol intake”. For the same compound, the “reduction of ethanol intake” value ([4]; maintenance test phase, 4 days, s.c. twice daily, vs vehicle) was “approximately 50%”, the “time course of reduced ethanol intake (Dose x Day interaction)” value ([4]; p<0.001, data not shown) was “most robust on the first day” and the “basal, daily alcohol craving (AUQ)” value [5] was “significantly decreased”.
